# Assay results taken from ChEMBL document CHEMBL5614411, “Exploring novel A2AAR antagonists: Design, synthesis, and evaluation of 2,6,9-trisubstituted purine derivatives as promising antifibrotic agents” (Bioorg Med Chem, 2024).
# Activity calls are given as the source filed them. No cut-off for these calls is given here.
# Assays:
# Format in all cases: functional, cell-based
# [1] = target: Adenosine receptor A2a (Homo sapiens, UniProt P29274); assay: Antagonist activity at human Adenosine receptor A2a transfected in HEK293 cells co-expressing CRE-luciferase plasmid assessed as reduction in CRE promoter activity by measuring effective concentration incubated for 18 hrs by luciferase based CRE reporter assay
# [2] = system: LX-2; assay: Antifibrotic activity against human LX-2 cells overexpressing human Adenosine receptor A2a assessed as downregulation of fibronectin expression at 10 uM incubated for 18 hrs by Western blotting analysis
# [3] = system: LX-2; assay: Antifibrotic activity against human LX-2 cells overexpressing human Adenosine receptor A2a assessed as downregulation of COL1A1 expression at 10 uM incubated for 18 hrs by Western blotting analysis
# [4] = system: LX-2; assay: Antifibrotic activity against human LX-2 cells overexpressing human Adenosine receptor A2a assessed as downregulation of PKA phosphorylation at Thr197 residue at 10 uM incubated for 18 hrs by Western blotting analysis
# [5] = system: LX-2; assay: Antifibrotic activity against human LX-2 cells overexpressing human Adenosine receptor A2a assessed as downregulation of alpha-SMA expression at 10 uM incubated for 18 hrs by Western blotting analysis
# Sequence of Adenosine receptor A2a (P29274 whole entry): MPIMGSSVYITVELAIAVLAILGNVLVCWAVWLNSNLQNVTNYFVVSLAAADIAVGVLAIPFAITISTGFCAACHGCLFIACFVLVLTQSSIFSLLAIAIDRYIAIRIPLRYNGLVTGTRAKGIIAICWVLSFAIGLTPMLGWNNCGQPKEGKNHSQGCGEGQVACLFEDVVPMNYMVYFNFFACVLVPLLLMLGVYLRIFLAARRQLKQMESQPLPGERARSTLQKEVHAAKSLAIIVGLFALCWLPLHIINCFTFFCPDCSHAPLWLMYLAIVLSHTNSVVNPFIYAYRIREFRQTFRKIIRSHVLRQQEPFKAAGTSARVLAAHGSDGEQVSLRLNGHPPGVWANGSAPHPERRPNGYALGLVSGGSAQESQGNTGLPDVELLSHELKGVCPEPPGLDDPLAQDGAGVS
SMILES,EC50 [1],Activity [2],Activity [3],Activity [4],Activity [5]
CNc1nc(C#Cc2ccccc2)nc2c1ncn2Cc1ccccc1,14.6 µM,Active,Active,Active,Active
CNc1nc(C#Cc2ccccc2)nc2c1ncn2Cc1cc(OC)c(OC)c(OC)c1,–,inactive,inactive,inactive,inactive
